Assays:
Assay type in all cases: cell-based, murine
[1] = system: bone marrow-derived dendritic cells (BMDCs); assay: Bodipy 493/503 staining of intracellular lipids in BMDCs by FACS; conditions: 100 μM LPA, 6 hours
Text: Bodipy 493/503 staining was used to detect intracellular lipids by FACS. ***P<0.0005. FIG. 2B graphically illustrates quantities of Bodipy-stained intracellular lipids in LPA-treated cells compared to untreated cells.

[2] = system: TBK1 and IRF3 proteins in BMDCs; assay: Western blot of TBK1 and IRF3 phosphorylation in BMDCs; conditions: LPS- or Poly(I:C)-treated BMDCs; compared with untreated
Procedure: The activation status of signaling pathways implicated in the optimal induction of type-I IFNs was then evaluated.

BMDCs = assay: RT-qPCR of type-I IFN target genes in BMDCs
Procedure: FIG. 11A-11H illustrate that LPA downregulates type-I IFN target genes in dendritic cells. BMDCs were left untreated or incubated with LPA (100 uM) for 2 hours and 6 hours, and gene expression was determined by RT-qPCR. **P<0.001, ***P<0.0005, ****P<0.0001. FIG. 11A illustrates downregulation of Ddx58 mRNA (encoding DExD/H-box helicase 58) relative to Actb expression at 2 hours and 6 hours after LPA treatment of BMDCs. FIG. 11B illustrates downregulation of Ifit1 mRNA (encoding interferon-induced protein with tetratricopeptide repeats 1) relative to Actb expression at 2 hours and 6 hours after LPA treatment of BMDCs. FIG. 11C illustrates downregulation of Ifit2 mRNA (encoding interferon-induced protein with tetratricopeptide repeats 2) relative to Actb expression at 2 hours and 6 hours after LPA treatment of BMDCs. FIG. 11D illustrates downregulation of Isg15 mRNA (interferon-stimulated gene 15) relative to Actb expression at 2 hours and 6 hours after LPA treatment of BMDCs. FIG. 11E illustrates downregulation of Ciita mRNA (encoding a Class II Major Histocompatibility Complex Transactivator) relative to Actb expression at 2 hours and 6 hours after LPA treatment of BMDCs. FIG. 11F illustrates downregulation of Oas1a mRNA (encoding 2′-5′ oligoadenylate synthetase 1A) relative to Actb expression at 2 hours and 6 hours after LPA treatment of BMDCs. […]

[3] = system: bone marrow derived DCs (BMDCs); assay: LPA receptor gene expression in BMDCs by RNA-seq; design: Lpar1 expression level / Lpar3 expression level / Lpar4 expression level / Lpar5 expression level / Lpar6 expression level: unit not given here; conditions: RNA-seq relative expression
Procedure: FIG. 1 illustrates relative expression levels of genes encoding lysophosphatidic acid (LPA) receptors in the indicated murine dendritic cell (DC) populations, as determined by RNA-seq. Ovarian cancer DCs were sorted from tumor locations of mice bearing ID8-based metastatic ovarian carcinoma for 24 days.
Relative expression levels of genes encoding LPA receptors in the indicated dendritic cell (DC) populations was determined by RNA-seq.
FIG. 1 illustrates that murine bone marrow derived DCs (BMDCs) as well as DCs infiltrating ovarian tumors expressed significant levels of genes encoding various LPA receptors, particularly Lpar6 (see also Table 3).

lysophosphatidic acid [LPA] was tested, and the “intracellular lipid accumulation in dendritic cells” value [1] was “induces intracellular lipid accumulation”, the “phosphorylation of TBK1 and IRF3 proteins” value [2] was “inhibited phosphorylation” and the “type-I IFN target gene expression (Ddx58, Ifit1, Ifit2, Isg15, Ciita, Oas1a, Oas1g, Oas2)” value (BMDCs; BMDCs, LPA 100 uM, 2 hours and 6 hours) was “decreased”. For the same substance, the “expression of type-I IFN-related genes in BMDCs exposed to Talazoparib-treated ovarian cancer cells” value (BMDCs; coculture) was “prevented expression”, the Lpar1 expression level ([3]; BMDC + LPA (2 hr.)) was 8.540 and the Lpar2 expression level ([3]; BMDC + LPA (2 hr.)) was 0.303. It also gave a Lpar3 expression level ([3]; BMDC + LPA (2 hr.)) of 0.300, a Lpar4 expression level ([3]; BMDC + LPA (2 hr.)) of 0.040 and a Lpar5 expression level ([3]; BMDC + LPA (2 hr.)) of 1.517. For the same substance, the Lpar6 expression level ([3]; BMDC + LPA (2 hr.)) was 62.313, the Lpar1 expression level ([3]; BMDC + LPA (6 hr.)) was 2.240 and the Lpar2 expression level ([3]; BMDC + LPA (6 hr.)) was 0.353. The Lpar3 expression level ([3]; BMDC + LPA (6 hr.)) was 0.253, the Lpar4 expression level ([3]; BMDC + LPA (6 hr.)) was 0.007 and the Lpar5 expression level ([3]; BMDC + LPA (6 hr.)) was 2.837. It also gave a Lpar6 expression level ([3]; BMDC + LPA (6 hr.)) of 72.007.
